This note sets out measurements from patent US20070105892A1, “Amidino compounds as cysteine protease inhibitors” (AXYS Pharmaceuticals, Inc., priority 2003, published 2007).

Each structure is given as a SMILES string.

As usually defined, the melting point is the temperature, or range, at which the solid turns liquid. `CCc1noc(C(=O)[C@H](CC)NC(=O)[C@H](CC2(C)CCCC2)NC2=NS(=O)(=O)c3ccccc32)n1` [Example 1] gave a melting point of 202 to 204 °C.
